Legend:
C57BL/KsJ db/db mouse = assay: Antidiabetic and serum-lipid-lowering activity in the db/db mouse (Experiments I and II); settings: Experiment II; for Glucose: blood
Excerpt: Plasma levels of glucose, insulin, triglycerides, cholesterol, free fatty acids and urea were checked for a well-matched distribution of mice in the treatment groups.
At the start of treatment the body weights of the mice were checked and arrangements were made for monitoring water and feed consumption.
In the course of the experiment, serum glucose levels, oral glucose tolerance test (OGTT) findings, a number of lipid status parameters and weight gain were monitored.

PPARγ = target: T1, PPARγ (Mus musculus, UniProt P37238); assay: Transactivation assay mediated by PPARγ in NIH-3T3 cells (CAT reporter); format: cell-based
T1 construct: expressed in transfected cells; host or cells: NIH-3T3 (mouse embryonal fibroblasts)
T1 sequence (P37238 1-475 isoform P37238-2): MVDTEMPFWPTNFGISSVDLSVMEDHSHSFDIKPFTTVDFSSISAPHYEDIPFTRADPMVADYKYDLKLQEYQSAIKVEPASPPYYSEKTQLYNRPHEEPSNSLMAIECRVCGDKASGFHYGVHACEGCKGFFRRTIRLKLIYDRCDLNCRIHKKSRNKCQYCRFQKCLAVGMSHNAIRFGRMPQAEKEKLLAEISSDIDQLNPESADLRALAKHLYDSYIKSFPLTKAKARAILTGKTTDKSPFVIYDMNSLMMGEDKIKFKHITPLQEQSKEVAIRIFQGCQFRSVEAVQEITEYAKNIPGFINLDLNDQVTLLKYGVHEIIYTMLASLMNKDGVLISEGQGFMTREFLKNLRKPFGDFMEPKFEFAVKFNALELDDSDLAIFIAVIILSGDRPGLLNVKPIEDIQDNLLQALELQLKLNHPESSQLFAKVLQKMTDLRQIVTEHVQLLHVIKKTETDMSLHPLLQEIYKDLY
Excerpt: A transactivation assay specific for PPARγ thus requires the simultaneous presence of the following in the preselected cell line: • a) a sufficient amount of PPARγ; • b) a sufficient amount of the 9 cis-retinoic acid receptor (RXR); • c) a chimeric plasmid containing the reporter gene controlled by a PPRE, located upstream of a viral heterologous promoter. In our case the reporter gene is chloramphenicol-acetyl transferase (CAT).
In the transactivation assay used, the preselected cells are transfected with the expression vector pSG5 Stop-mPPARg1 which allows the synthesis of the PPARγ receptor by the transfected cell. Simultaneously, a plasmid reporter (pBLCAT2-PPRE) is transfected which contains a peroxisome proliferator response element (PPRE) isolated by the gene promoter for acyl-CoA oxidase, upstream of the heterologous promoter of viral thymidine kinase (TK) fused with the reporter gene CAT. Since the endogenous cell levels of the RXR receptor are sufficiently high, it is not necessary to transfect an expression vector specific for RXR as well. […] Therefore, any increase in CAT levels will be the result of increased gene transcription dependent upon the dimerisation of PPARγ with RXR and upon the heterodimer bond formed with the peroxisome proliferator response element. Together with the expression vector and the reporter vector the cells are also transfected with the plasmid pCH110 which provides the internal control for the efficiency of transfection and the normalisation of the results
A cell line of mouse embryonal fibroblasts (NIH-3T3) was used [Hogan J. C. et al., Biochem Biophys Res Commun. 287 (2), 484-92 (2001)]. The cells were transfected with the reporter plasmid, the expression plasmid coding for the PPARγ receptor and the control vector pCH110. The cells were exposed to increasing concentrations of the study compounds and CAT activity was evaluated. Untreated cells were used as controls.
Mouse embryonal fibroblasts (NIH-3T3) were cultured according to the usual cell culture techniques, at 37° C. in a 5% v/v carbon dioxide atmosphere using as the growth medium DMEM (Dulbecco's modified Eagle's medium) modified with 3.7 g/l of sodium bicarbonate, 4 mM L-glutamine, 4.5 g/l of glucose, 1 mM sodium pyruvate and 10% v/v of calf serum, in the presence of streptomycin 100 μg/ml and penicillin 100 U/ml final.
The cells were co-transfected using the transfection reagent FuGENE6 (Roche), already described in the previous example. Twenty-four hours prior to transfection the cells were plated at a density of 8.0×10^4 cells/well in 12-well plates and maintained at 37° C. in a 5% v/v CO2 atmosphere. The culture medium, devoid of serum, was replaced 2 hours before transfection, and then the cells were treated with the transfection reagent FuGENE6, as described in the previous example. After 5 hours, the transfection medium was replaced by 1 ml of culture medium complete with serum and antibiotics in the presence or absence of the molecules to be tested at 3 different concentrations (2, 20 and 100 μM). Rosiglitazone, a known ligand of PPARγ, was used as the positive reference compound.
The cell protein extracts were prepared and the CAT activity assay was conducted exactly as described in the previous example.
As an internal control for the normalisation of the CAT activity in relation to the transfection efficiency, β-galactosidase activity coded for by the corresponding gene in the co-transfected plasmid pCH110 was used.
β-galatosidase activity was measured exactly as described in the previous example.
For the normalisation of the CAT assay results in relation to […] activity the formula described in the previous example was used.

[1] = after 12 days' treatment, postabsorption, 7.5 hours after last treatment, mean ± S.E.

## CC(C)(Sc1cccc(OCCc2ccc(Cl)cc2)c1)C(=O)O [Example 2, 2-[3-[2-(4-chlorophenyl)ethoxy]phenylthio]-2-methylpropanoic acid]
C57BL/KsJ db/db mouse; after 9 days' treatment, postabsorption, 8 hours after last treatment
  Variation % (glucose) vs control: −66%
C57BL/KsJ db/db mouse; after 11 days' treatment, OGTT glucose 3 g/kg
  Variation % (AUC glucose at OGTT) vs control: −43%
C57BL/KsJ db/db mouse; after 11 days' treatment, OGTT glucose 3 g/kg, fasting 18 hours, 5 hours after last treatment, mean ± S.E.
  AUC glucose at OGTT: 24517 ± 2261 a.u.
C57BL/KsJ db/db mouse; after 11 days' treatment, fasting 18 hours, 5 hours after last treatment
  Variation % (glucose) vs control: −48%
C57BL/KsJ db/db mouse; after 12 days' treatment
  Variation % (HDL-cholesterol) vs control: +19%
  Variation % (final b.w.) vs control: +5%
  Variation % (triglycerides) vs control: −44%
C57BL/KsJ db/db mouse; after 12 days' treatment, postabsorption (fasting 9 a.m. to 4.30 p.m.), 7.5 hours after last treatment, mean ± S.E.
  Glucose (plasma): 263 ± 30 mg/dL
C57BL/KsJ db/db mouse; after 12 days' treatment, postabsorption, 7.5 hours after last treatment
  Variation % (plasma glucose) vs control: −54%
C57BL/KsJ db/db mouse; [1]
  HDL-choles. (plasma): 102.5 ± 4.7Δ mg/dl
  Triglycerides (plasma): 48.6 ± 2.5 mg/dL
C57BL/KsJ db/db mouse; after 9 days' treatment, postabsorption (fasting 9 a.m. to 5 p.m.), 8 hours after last treatment, mean ± S.E.
  Glucose: 155 ± 21 mg/dL
C57BL/KsJ db/db mouse; after 11 days' treatment, fasting 18 hours, 5 hours after last treatment, mean ± S.E.
  Glucose: 128 ± 8 mg/dL
C57BL/KsJ db/db mouse; final body weight after 12 days' treatment, postabsorption condition, mean ± S.E.
  Final b.w.: 39.4 ± 0.9 g
C57BL/KsJ db/db mouse; initial body weight
  Variation % (initial b.w.) vs control: −3%
C57BL/KsJ db/db mouse; initial body weight, postabsorption condition, mean ± S.E.
  Initial b.w.: 37.8 ± 0.5 g
other
  melting point: 105 to 106 °C
PPARγ; 2 μM
  Activation of the gene-reporter CAT as a percentage of the reference compound (rosiglitazone 2 μM = 100%): 28.6%
PPARγ; 20 μM
  Activation of the gene-reporter CAT as a percentage of the reference compound (rosiglitazone 2 μM = 100%): 61.2%
PPARγ; 100 μM
  Activation of the gene-reporter CAT as a percentage of the reference compound (rosiglitazone 2 μM = 100%): 114.3%

— patent US7375124B2, “Use of α-phenylthiocarboxylic and α-phenyloxycarboxylic acids with serum-glucose-lowering and serum-lipid-lowering activity” (Sigma-Tau Industrie Farmaceutiche Riunite S.p.A., priority 2002, dated 2008)
